Measurements published in EP0503537B1, “6,9 Bis(substituted-amino)benzo-[g]isoquinoline-5,10-diones” (THE UNIVERSITY OF VERMONT, priority 1991, dated 1992).
Values after ≈ are worked out from the molar mass of the structure shown. Values joined by “and” are separate entries in the source; they are usually repeats but may differ in a detail not shown here. Equal values may be shown once.

Experiments:
[1] = tested on: L1210 Murine leukemia cells; test: In vitro growth inhibition of L1210 murine leukemia cells (Coulter Counter); type: cell-based; conditions: Mus musculus, 72 hours of continuous exposure
Experimental: The "in vitro" cytotoxic evaluation was also performed on L 1210 murine leukemia cells using the above mentioned cells maintained in suspension cultures (McCoy's 5A medium supplemented with 10% horse serum, glutamine, penicillin and streptomycin) grown in an humidified environment of 10% carbon dioxide and 90% air at 37°C. The compounds were dissolved in dimethylsulfoxide (DMSO) and added to the suspended cells in appropriate concentrations. After 72 hours of continuous exposure, the cell concentration was counted using a Coulter Counter and growth inhibition calculated using the formula: % growth inhibition = 1 - [cell number treated/cell number DMSO alone] x 100. [formula]
The IC50 was calculated from the growth inhibition data and they are reported in table VII in comparison to the prior art compound 5a (see table I for structure of 5a).
L1210 Murine leukemia cells were routinely maintained in suspension cultures in McCoy's 5A medium supplemented with 10% horse serum glutamine, penicillin and streptomycin and grown in a humidified environment of 10% carbon dioxide and 90% air at 37°C.
To assess the in vitro toxicity, each compound was dissolved in dimethylsulfoxide and added to 1 ml of L1210 cells (10^5 cells/tube) to attain final concentrations of 0.01, 0.1 and 1 µg of drug/ml of culture. After 72 hours of continues exposure to the drug, the cell concentration was determined with a Coulter Counter. Growth inhibition was calculated for each drug using the following formula: % growth inhibition = 1-[cell number treated/cell number DMSO alone] x 100. [formula]
The growth inhibition data was then used to calculate the IC50 value (the calculated drug concentration required to inhibit cell growth by 50% of control.

[2] = tested on: human colon adenocarcinoma cell line (Lovo); test: MTT cytotoxicity assay on human colon adenocarcinoma Lovo cells; type: cell-based; conditions: 144 h, read-out: IC50 µg/ml±S.D. LoVo
Experimental: (§1) The evaluation of the "in vitro" cytotoxic activity of the compounds of the invention was performed using a human colon adenocarcinoma cell line (Lovo) isolated from a metastatic nodule and a subline with aquired resistance to a number of antitumor agents, among which doxorubicin, VP-16 and vincristine. […] The compounds were tested according to the MTT assay (Mosman, T., "Rapid Colorimetric assay for cellular growth and survival: application to proliferation and cytotoxicity assay", J. Immunol. Methods, (1983), 65, 55-63; Green, L.M., "Rapid colorimetric assay for cell viability; application to the quantitation of cytotoxic and growth inhibitory lymphokines", J. Immunol. Methods, (1984), 70, 257-268) in comparison with mitoxantrone, ametantrone and doxorubicin.
(§2) In vitro biological evaluation: MTT assay on human colon adenocarcinoma Lovo cells.
(§3) The MTT assay was performed according to Mosmann, T., J. Immunol. Methods, (1983), 65, 55-63 and Green, L. M., J. Immunol. Methods, (1984), 70, 257-268.
(§4) Immediately before use, compounds and reference standards are dissolved in proper solvent and subsequently further diluted in complete culture medium. Human colon adenocarcinoma cells Lovo and the subline resistant to doxorubicin (Lovo/DX) (2.5. 10^4 cells/ml) are plated in 96-well plates and preincubated for 24 hours in culture medium. After this time, the cells are exposed to drugs for 144 hours, then the thiazolyl blue tetrazolium bromide solution (MTT solution) is added and the cells are reincubated for 4 hours. The supernatant is removed and 150 µl of dimethylsulfoxide are added to solubilize formazan crystals. The plate is read at 570 nm with microplate reader and the inhibiting concentration of 50% cellular growth (IC50; µg/ml) is calculated.

[3] = tested on: Lovo/DX; test: MTT cytotoxicity assay on doxorubicin-resistant subline Lovo/DX; type: cell-based, human
Experimental: as §1, §2, §3, §4

[4] = tested on: P388 Murine Leukemia; test: In vivo P388 murine leukemia (iv/iv, d 1, 4, 7); conditions: for T/C% (range): median survival time; for TOX: toxic deaths/total number of mice; for LTS: tumor free at 60 days
Experimental: P388 Murine Leukemia cells were maintained in vivo by serial intraperitoneal (i.p.) injections of 10^6 cells in DBA2 mice. For test purposes, CDF1 mice were inoculated intravenously (i.v.) with 10^6 P388 cells and treatment was initiated 24 hr later. The i.v. dose of drug was administered on days 1, 4 and 7. Mice were observed daily for signs of toxicity and survival. The date of death was recorded for each animal that died or was sacrificed during the 60 day study. The median survival time (MST) for each treatment group was calculated and the % T/C was determined using the following formula: % T/C = [(MST treated)/(MST control)] x 100 [formula]

[5] = tested on: P388 Murine Leukemia; test: In vivo ascitic P388 murine leukemia (ip/ip, d 1, 5, 9); parameters: species or system CDF1 mice; conditions: for % T/C (range): median survival time; for TOX: toxic deaths/total No. of mice
Experimental: Treatment was initiated approximately 24 hours after tumor transplantation and dosages of the drug were administered ip (P388 ip/ip) or iv (P388 iv/iv) according to preestablished protocols, usually at 3-day (P388 iv/iv) or 4-day (P388 ip/ip) intervals. The studies were done over a 60-day period and the date of death for each animal was recorded. The % T/C was determined using the mean survival time (MST) for each group according to the formula % T/C = [(MST treated)/(MST control)] x 100 [formula]
P388 Murine Leukemia cells were maintained in vivo by serial intraperitoneal (ip) injections of 10^6 cells in DBA2 mice. For test purposes, CDF1 mice were inoculated i.p. with 10^6 P388 cells and treatment was initiated 24 hours later. The i.p dose of drug was administered on days 1, 5 and 9. Mice were observed daily for signs of toxicity and survival. The date of death was recorded for each animal that died or was sacrificed during the 60-day study. The median survival time (MST) for each treatment group was calculated and the % T/C was determined using the following formula: % T/C = [(MST treated)/(MST control)] x 100 [formula]

[6] = tested on: murine Lewis Lung carcinoma; test: In vivo murine Lewis Lung carcinoma (im/iv); parameters: species or system C57b1/6 female mice; conditions: LEWIS LUNG im/iv 1,8,15; for T/C %: median survival time; for TOX: toxic deaths/total number of mice; for TWI %: tumor Weight Inhibition 7 days after last treatment
Experimental: (§5) These tumor models are enclosed in the panel of eight transplanted tumors used by the U.S.-NCl as screen panel for selection of clinically useful antitumor agents (R.K.Y. Zee Cheng and C.C. Cheng, "Screening and evaluation of anticancer agents", Meth. and Find. Expl. Clin. Pharmacol., (1988), 10(2), 67-101).
C57b1/6 female mice were trasplantated im (intralimbs) with 10^5 cells. […] The mean tumor weight for each treatment group was calculated according to Geran, R.I. et al., Cancer Chemother. Rep., (1972), 3, 51-61 and the TWI% was calculated 7 days after the last drug treatment using the formula: TWI% = 100-[(Mean tumor weight of treated mice)/(mean tumor weight of controls)] x 100. [formula]

[7] = tested on: human MX-1 mammary carcinoma; test: In vivo human MX-1 mammary carcinoma xenograft (sc/iv); conditions: MX-1 sc/iv q 7d x 3; for TWI %: CD1 nu/nu female mice; for TOX: toxic deaths/total number of mice
Text: as §5
CD1 nu/nu female mice were transplantated sc (subcutaneously) with tumor fragments (about 1 mm x 1 mm x 1 mm). Treatment was given iv once a week for three weeks, when tumor weight reached an average of 150 mg. For all individual tumors the weight change (relative tumor weight) for the start of treatment (Vo) was expressed as Vt/Vo at each day of measurement (Vt). TWI% was calculated 7 days after the last drug treatment using the formula: TWI% = 100-[(mean relative tumor weight of treated mice)/(mean relative tumor weight of controls)] x 100. [formula]

[8] = tested on: L1210 murine leukemia; test: In vivo L1210 murine leukemia (ip/ip, d 1, 5, 9), protocol a, 10^6 cells; parameters: species or system BDF1 mice; conditions: days 1, 5 and 9, ip; for %T/C: mean survival time; for LTS: tumor-free at 60 days
Experimental: L 1210 leukemia cells were intraperitoneally (ip) injected in CDFl mice and treatment was initiated approximately 24 hours after tumor transplantation. Dosages of the drugs were administered ip according to preestablished protocols, usually at 4-day intervals. The studies were done over a 60-day period and the date of death for each animal was recorded. The % T/C was determined using the mean survival time (MST) for each group according to the formula % T/C = [(MST treated)/(MST control)] x 100 [formula]
• a) L1210 murine leukemia cells were maintained in vivo by weekly intraperitoneal (ip) injections of 10^6 cells in BDF1 mice. For test purposes, mice were inoculated i.p. with 10^6 L1210 cells and treatment was initiated 24 hours later. The desired dose of drug was administered on days 1, 5 and 9. Mice were observed daily for signs of toxicity and survival. The date of death was recorded for each animal that died or was sacrificed during the 60-day study. The mean survival time (MST) for each treatment group was calculated and the % T/C was determined using the following formula: % T/C = [(MST treated)/(MST control)] x 100 [formula] The results are reported in table X • b) L1210 murine leukemia cells were maintained in vivo by weekly intraperitoneal (ip) injections of 10^5 cells in DBA2 mice. For test purposes, CDF1 mice were inoculated i.p. with 10^5 L1210 cells and treatment was initiated 24 hours later. The desired dose of drug was administered on days 1, 5 and 9. Mice were observed daily for signs of toxicity and survival. The date of death was recorded for each animal that died or was sacrificed during the 60-day study. The median survival time (MST) for each treatment group was calculated and the % T/C was determined using the following formula: % T/C = [(MST treated)/(MST control)] x 100 [formula]

## O=C1c2ccncc2C(=O)c2c(NCCN3CC3)ccc(NCCN3CC3)c21 [Compound 10f, 6,9-Bis{[2-(1'-aziridino)ethyl]amino}benzo[g]isoquinoline-5,10-dione]
[1]
  IC50: 0.002 µg/mL (≈ 5.3 nM)

## NCCNc1ccc(NCCN)c2c1C(=O)c1ccncc1C2=O.O=C(O)/C=C\C(=O)O.O=C(O)/C=C\C(=O)O [Compound 10i.maleate, 6,9-bis{[2-(amino)ethyl]amino}benzo[g]isoquinoline-5,10-dione dimaleate]
[2]
  IC50: 0.21 ± 0.08 µg/mL
[3]; Homo sapiens, LoVo/DX, MTT assay, 144 hrs drug exposure, read-out: IC50 µg/ml±S.D. LoVo/Dx
  IC50: 6.7 ± 1.8 µg/mL
[3]; R.I. = (IC50 LoVo/Dx)/(IC50 LoVo)
  R.I.: 31.8
[4]; 18 mg/kg/day iv days 1,4,7, dimaleate
  T/C% (range): 200% and 188%
[4]; 18 mg/kg/day iv days 1,4,7
  TOX: 0/16
  LTS: 0/16
[4]; 27 mg/kg/day iv days 1,4,7
  T/C% (range): 203(181-227) %
  TOX: 2/32
  LTS: 0/32
[5]; 25 mg/kg/day ip days 1,5,9
  LTS (day 60): 0/8
  % T/C (range): 185%
  TOX: 0/8
[5]; 37.5 mg/kg/day ip days 1,5,9
  LTS (day 60): 1/8
  % T/C (range): 260%
  TOX: 1/8
[6]; 40 mg/Kg/day
  T/C %: 158%
  TOX: 0/10
  TWI %: 80%
[6]; 60 mg/Kg/day
  T/C %: 182%
  TOX: 1/10
  TWI %: 95%
[7]; 17 mg/Kg/day
  TWI %: 65%
  TOX: 0/7
[7]; 26.6 mg/Kg/day
  TWI %: 58%
  TOX: 0/7
[7]; 40 mg/Kg/day
  TWI %: 64%
  TOX: 1/5

## O=C1c2ccncc2C(=O)c2c(NCCNCCO)ccc(NCCNCCO)c21 [Compound 10l.maleate, 6,9-bis{[2-(2-hydroxyethylamino)ethyl]amino}benzo[g]isoquinoline-5,10-dione]
[1]
  IC50: 0.06 µg/mL
[8]; Dose 12.5 mg/kg
  %T/C: 313%
  LTS: 2/6
[8]; Dose 25 mg/kg
  %T/C: 415%
  LTS: 1/6
